The values that follow are results of earlier work, collected in patent US20220000160A1, “FLAVONOID DELIVERY SYSTEM” (priority 2019, published 2022).

Structures are written as SMILES.

With `C[C@@H]1O[C@@H](OC[C@H]2O[C@@H](Oc3c(-c4ccc(O)c(O)c4)oc4cc(O)cc(O)c4c3=O)[C@H](O)[C@@H](O)[C@@H]2O)[C@H](O)[C@H](O)[C@H]1O` [Free rutin, quercetin-3-rhamnosylglucoside], the solubility in ethanol entry was “about 4 % w/v”.
